This is an account of results in ChEMBL document CHEMBL3286321, “Facile Synthesis and Preliminary Structure-Activity Analysis of New Sulfonamides Against Trypanosoma brucei” (ACS Med Chem Lett, 2014).

The test system of data set [1] is Trypanosoma brucei brucei. Put plainly: Trypanocidal activity against logarithmic phase of Trypanosoma brucei brucei 427 assessed as inhibition of parasite viability after 48 hrs by Alamar blue viability assay. The format is functional, organism-based. To be noted: Trypanosoma brucei, 427, 48 h. On the technique in general: Alamar Blue is a resazurin reagent that responds to reducing activity.

The nature of data set [2]: Selectivity index, ratio of IC50 for HEK293 cells to IC50 for Trypanosoma brucei brucei 427. The note with it: human, read-out: Ratio IC50. It is filed as toxicity, cell-based.
In data set [3] the test system is Trypanosoma brucei brucei. Put plainly: Trypanocidal activity against logarithmic phase of Trypanosoma brucei brucei 427 assessed as inhibition of parasite viability at 10 uM after 48 hrs by Alamar blue viability assay. The note with it: Trypanosoma brucei, 427, 48 h. The format is functional.

pIC50: −log10 of the molar value.

For `CCS(=O)(=O)N1CCCc2ccc(NS(=O)(=O)c3cccs3)cc21`, in data set [1], the pIC50 was 5.40. The selectivity ratio in data set [2] was 20.8.
For the molecule `CCS(=O)(=O)N1CCCc2ccc(NS(=O)(=O)c3ccccc3F)cc21`, in data set [2], the selectivity ratio was 32.
As to `CCS(=O)(=O)N1CCCc2ccc(NS(=O)(=O)c3ccc(F)cc3)cc21`, in data set [1], the pIC50 is 5.11. Moreover, the selectivity ratio in data set [2] is 11.8.
In the same order, the values of `CCS(=O)(=O)N1CCCc2ccc(NS(=O)(=O)c3cccc(F)c3)cc21` are 5.11 and 11.2.
In the case of `CCS(=O)(=O)N1CCCc2ccc(NS(=O)(=O)c3c(F)cccc3F)cc21`, the inhibition at 10 µM in data set [3] was 82%.
As to `CCS(=O)(=O)N1CCCc2ccc(NS(=O)(=O)c3c(F)c(F)c(F)c(F)c3F)cc21`, the inhibition at 10 µM in data set [3] came to 94%.
Take `CCS(=O)(=O)N1CCCc2ccc(NS(=O)(=O)c3ccc(Br)cc3F)cc21`: the pIC50 in data set [1] was 5.00. For the same molecule, in data set [2], the selectivity ratio worked out at 9.
Take `CCS(=O)(=O)N1CCCc2ccc(NS(=O)(=O)c3ccc(Br)s3)cc21`: the pIC50 in data set [1] is 4.95. The selectivity ratio in data set [2] is 7.7.
Turning to `CCS(=O)(=O)N1CCCc2ccc(NS(=O)(=O)c3ccc(Cl)s3)cc21`, the pIC50 in data set [1] was 4.88. The selectivity ratio in data set [2] is 6.9.
In the same order, the values of `CCS(=O)(=O)N1CCCc2ccc(NS(=O)(=O)c3ccc(C)cc3)cc21` are 5.47 and 25.8.
Consider `CCS(=O)(=O)Nc1ccc2c(c1)N(S(=O)(=O)CC)CCC2`, for which, in data set [3], the inhibition at 10 µM was 14%.
As to `CCS(=O)(=O)N1CCCc2ccc(NS(=O)(=O)CC(F)(F)F)cc21`, the inhibition at 10 µM in data set [3] is 18%.
As to `CCCS(=O)(=O)N1CCCc2ccc(NS(=O)(=O)c3ccc(C)cc3)cc21`, in data set [1], the pIC50 was 5.74. In addition, the selectivity ratio in data set [2] came to 29.
Consider `CCCS(=O)(=O)N1CCCc2ccc(NS(=O)(=O)c3ccc(C(C)C)cc3)cc21`, for which the pIC50 in data set [1] was 5.77. Besides, in data set [2], the selectivity ratio came out at 8.9.
In the same order, the values of `CCCS(=O)(=O)N1CCCc2ccc(NS(=O)(=O)c3ccc(-c4ccccc4)cc3)cc21` are 5.24 and 16.6.
With `CCCS(=O)(=O)N1CCCc2ccc(NS(=O)(=O)c3ccccc3F)cc21`, the pIC50 in data set [1] is 5.46. Moreover, the selectivity ratio in data set [2] stood at 24.3.
`CCCS(=O)(=O)N1CCCc2ccc(NS(=O)(=O)c3cccs3)cc21`: the inhibition at 10 µM in data set [3] was less than 10%.
Same read-out and setting: next, `CCCS(=O)(=O)N1CCCc2ccc(NS(=O)(=O)c3ccccc3C)cc21`: 11%; `CCCS(=O)(=O)N1CCCc2ccc(NS(=O)(=O)c3cccc(C)c3)cc21`: less than 10%.
As to `CCCS(=O)(=O)N1CCCc2ccc(NS(=O)(=O)c3ccc(C)cc3C)cc21`, in data set [1], the pIC50 was 5.05. Further, in data set [2], the selectivity ratio turned out to be 10.4.
For `CCCS(=O)(=O)N1CCCc2ccc(NS(=O)(=O)c3cc(C)cc(C)c3)cc21`, in data set [3], the inhibition at 10 µM was less than 10%.
For `CCCS(=O)(=O)N1CCCc2ccc(NS(=O)(=O)c3c(C)c(C)c(C)c(C)c3C)cc21`, in data set [1], the pIC50 is 5.10. The selectivity ratio in data set [2] is 11.4.
Consider `O=S(=O)(Nc1ccc2c(c1)N(S(=O)(=O)c1cccs1)CCC2)c1cccs1`, for which the inhibition at 10 µM in data set [3] turned out to be 35%.
As for `Cc1ccc(S(=O)(=O)Nc2ccc3c(c2)N(S(=O)(=O)c2cccs2)CCC3)cc1`, the pIC50 in data set [1] was 5.51. In addition, in data set [2], the selectivity ratio came to 2.5.
In the same order, the values of `Cc1ccc(S(=O)(=O)N2CCCc3ccc(NS(=O)(=O)c4cccs4)cc32)cc1` are 5.10 and 1.7.
Taken in the same sequence, the figures for `Cc1ccc(S(=O)(=O)Nc2ccc3c(c2)N(S(=O)(=O)c2ccc(C)cc2)CCC3)cc1` were 5.41 and 1.8.

In general, pIC50 refers to the negative decadic logarithm of the IC50, by convention in mol/L. One may read the inhibition as the relative decrease from the control value, in per cent.
